We go through ten compounds from patent publication US4581356A, “Triazine derivatives, and pharmaceutical compositions comprising the same” (Fujisawa Pharmaceutical Co., Ltd., priority 1983, dated 1986).

Assay [1] concerns platelet aggregation (collagen as inducer). The assay can be described thus: Inhibition of collagen-induced platelet aggregation in platelet rich plasma. Format: cell-based. The settings on record: Oryctolagus cuniculus, rabbit PRP, 37° C., collagen 2.5 μg/ml, read-out: ID50 Collagen. The procedure: (§1) Platelet rich plasma (PRP) which contains 6.5-7.5×10^8 platelet/ml was prepared from rabbit blood. To the 200 μl of PRP, 5 μl of calcium chloride (1 mM) and 50 μl of pH 7.4 Tris-acetate solution (5 mM) containing 120 mM NaCl and test compound were added successively, and then stirred for 2 min. at 37° C. To the solution, 5 μl of adenosine diphosphate (ADP) (2.5 μM) or collagen (2.5 μg/ml) was added as an aggregation inducer. Aggregation was measured by using an aggregometer (NKK HEMA TRACER 1).

In assay [2] the test system is platelet aggregation (ADP as inducer). Briefly: Inhibition of ADP-induced platelet aggregation in platelet rich plasma. Format: cell-based. Conditions: Oryctolagus cuniculus, rabbit PRP, 37° C., ADP 2.5 μM, read-out: ID50 ADP. As for the experimental part: as §1
For assay [3], the system named is blood pressure. Briefly: Antihypertensive activity in uninephrectomized DOCA/saline hypertensive rats (mean arterial pressure). Format: in vivo, male Wister rats. Conditions: orally, DOCA rats. As for the experimental part: Five-week old male Wister rats were uninephrectomized under anesthesia. Deoxycorticosterone acetate (DOCA) (30 mg/kg), suspended in peanut oil, was injected subcutaneously twice a week and 1% saline was substituted for the drinking water. Animals with mean blood pressure 150-200 mmHg were used for experiment between 5 and 7 weeks after surgery.
The test compounds were administered intraperitonealy or orally. Blood pressure was measured at the femoral artery by means of a pressure transducer and recorded as electrically integrated values of mean arterial pressure.

The test system of assay [4] is ulcers (stomach). The assay can be described thus: Antiulcer activity: inhibition of ulcer area in rats immobilized in water bath. Format: in vivo, Sprague-Dawley rats. The settings on record: orally, 7 hours. The procedure: Sprague-Dawley rats weighing about 200 g were used. Each animal was immobilized in a small cage and put in a water bath allowing to respire. The temperature of the water bath kept at 22° C. The test compound was administered orally just before the immobilization. Seven hours later, the animals were sacrificed and their stomachs were removed. The stomach was then fixed with 2% formalin. The area of ulcers was measured for each animal. The mean area (mm^2) in the test animals was compared with that in the control animals and inhibition effect (%) were calculated.

For the compound `CC1NC(=O)NN=C1c1ccc2c(c1)CCCN2C(=O)C1CCC1` (stereo not drawn) [Example 14, 6-(1-Cyclobutanecarbonyl-1,2,3,4-tetrahydroquinolin-6-yl)-5-methyl-4,5-dihydro-1,2,4-triazin-3(2H)-one], the IC50 came out at 81 nM in assay [1] and 250 nM in assay [2].

Consider `CC1NC(=O)NN=C1c1ccc2c(c1)CCCN2C(=O)C1CC1` (stereo not drawn) [Example 13, 6-(1-cyclopropanecarbonyl-1,2,3,4-tetrahydroquinolin-6-yl)-5-methyl-4,5-dihydro-1,2,4-triazin-3(2H)-one], for which the IC50 came to 34 nM in assay [1] and 160 nM in assay [2].

In the case of `CC(=O)N1CCCc2cc(C3=NNC(=O)NC3C)ccc21` (stereo not drawn) [Example 10 - (5), 6-(1-acetyl-1,2,3,4-tetrahydroquinolin-6-yl)-5-methyl-4,5-dihydro-1,2,4-triazin-3(2H)-one], the IC50 turned out to be 540 nM in assay [1] and 1400 nM in assay [2]. For the same compound, in assay [3] (1 mg/kg (dose b)), the “Effect Max (mean ratio of maximum decrease of blood pressure)” value is 40%.

As to `CN1C(=O)CCc2cc(C3=NNC(=O)NC3)ccc21` [Example 8 - (4), 6-(1-methyl-2-oxo-1,2,3,4-tetrahydroquinolin-6-yl)-4,5-dihydro-1,2,4-triazin-3(2H)-one], the IC50 in assay [1] came out at 240 nM; in assay [2], 360 nM. Besides, the “Effect (inhibition of ulcer area)” value in assay [4] (10 mg/kg (dose c)) is recorded as 68.0%; in assay [4] (32 mg/kg (dose d)) it was 80.0%. For the same compound, the “Effect Max (mean ratio of maximum decrease of blood pressure)” value in assay [3] (0.1 mg/kg (dose a)) was 15%; in assay [3] (1 mg/kg (dose b)), 49%.

For the compound `CC1NC(=O)NN=C1c1ccc2c(c1)CCCN2C` (stereo not drawn) [Example 15, 6-(1-methyl-1,2,3,4-tetrahydroquinolin-6-yl)-5-methyl-4,5-dihydro-1,2,4-triazin-3(2H)-one], the IC50 in assay [1] amounted to 2000 nM; in assay [2], 5800 nM. In assay [3] (1 mg/kg (dose b)), the “Effect Max (mean ratio of maximum decrease of blood pressure)” value was 68%.

As to `CC1NC(=O)NN=C1c1ccc2c(ccc(=O)n2C)c1` (stereo not drawn) [Example 12 - (3), 6-(1-Methyl-2-oxo-1,2-dihydroquinolin-6-yl)-5-methyl-4,5-dihydro-1,2,4-triazin-3(2H)-one], the IC50 in assay [1] amounted to 48 nM; in assay [2], 67 nM. Moreover, the entries for the “Effect Max (mean ratio of maximum decrease of blood pressure)” value in assay [3] (0.1 mg/kg (dose a)) and in assay [3] (1 mg/kg (dose b)) were 40% and 58%, respectively.

On to `CN1C(=O)Cc2cc(C3=NNC(=O)NC3)ccc21` [Example 9 - (4), 6-(1-Methyl-2-indolinon-5-yl)-4,5-dihydro-1,2,4-triazin-3(2H)-one], for which the IC50 turned out to be 2700 nM in assay [1] and 4600 nM in assay [2].

Take `CC(=O)N1CCCc2ccc(C3=NNC(=O)NC3C)cc21` (stereo not drawn) [Example 11 - (3), 6-(1-Acetyl-1,2,3,4-tetrahydroquinolin-7-yl)-5-methyl-4,5-dihydro-1,2,4-triazin-3(2H)-one]: the IC50 in assay [1] worked out at 1900 nM; in assay [2], 3700 nM.

For `CC1NC(=O)NN=C1c1ccc2c(c1)NCCC2` (stereo not drawn) [Example 11 - (4), 6-(1,2,3,4-Tetrahydroquinolin-7-yl)-5-methyl-4,5-dihydro-1,2,4-triazin-3(2H)-one], the IC50 in assay [1] is 22000 nM; in assay [2] it was 56000 nM.

`CC1NC(=O)NN=C1c1ccc2c(c1)CCCN2` (stereo not drawn) [Example 10 - (6), 6-(1,2,3,4-tetrahydroquinolin-6-yl)-5-methyl-4,5-dihydro-1,2,4-triazin-3(2H)-one]: the IC50 in assay [1] came out at 470 nM; in assay [2], 1300 nM. In addition, the “Effect Max (mean ratio of maximum decrease of blood pressure)” value was 33% in assay [3] (0.1 mg/kg (dose a)) and 57% in assay [3] (1 mg/kg (dose b)).
